Measurements published in PMC9405451, “Uptake and Immunomodulatory Properties of Betanin, Vulgaxanthin I and Indicaxanthin towards Caco-2 Intestinal Cells” (Antioxidants, 2022).

Assays:
IL-6 = IL-6 mRNA level (qPCR) in cytokine-stimulated Caco-2 cells; assay type: cell-based, human; details: 5–80 μM, 6 h cytokine stimulation, maximum effect
Experimental: (§1) Confluent Caco-2 cells were stimulated with a cocktail of cytokines comprised of tumour necrosis factor-α (TNF-α, 20 ng mL^−1), interleukin-1β (IL-1β, 40 ng mL^−1), interferon-γ (IFN-γ, 10 ng mL^−1) and lipopolysaccharide (LPS, 100 ng mL^−1) in the presence or absence of BET, VUL and IND treatments (5–80 µM) for 6 h. With the completion of incubations, cells were washed with cold DPBS and lysed with TRIsure reagent (Scientific Laboratory Supplies Ltd.). Total RNA of cell samples was extracted in accordance with the manufacturer’s instructions. After resuspending the RNA pellets in DEPC water, concentration and quality were determined using the NanoQuant plate (Tecan Spark 10M plate reader) at 260 and 280 nm. Reverse transcription of RNA was achieved using the iScript™ cDNA Synthesis Kit (Bio-Rad). Transcription levels of target genes—interleukin 6 (IL-6), IL-8, COX-2, iNOS, NADPH oxidase 1 (NOX-1), NAD(P)H quinone dehydrogenase 1 (NQO-1), heme oxygenase 1 (HO-1), glutamate-cysteine ligase catalytic subunit (GCLC), glutathione peroxidase 1 (GPX-1), glutathione S-transferase 1 (GSTA-1) and GSTP-1 were evaluated using SybrGreen based reagent (SensiFast SYBR Green, SLS Ltd., Galveston, TX, USA) via real-time qPCR using StepOne Plus Real-Time PCR System (Applied Biosystems, Nottingham, UK). Primers of target genes were designed and blasted using the NCBI database, whose PCR product sizes were confirmed by 2% agarose gel electrophoresis. The list of primer sequences used in the study is presented in Supplemental Table S1. The calculation of target gene levels was based upon the Livak (2^−ΔΔCT) method with normalisation to the housekeeping gene, β-actin [31].

IL-8 = IL-8 mRNA level (qPCR) in cytokine-stimulated Caco-2 cells; assay type: cell-based, human; details: 5–80 μM, 6 h cytokine stimulation, maximum effect
Experimental: as §1

COX-2 = COX-2 mRNA level (qPCR) in cytokine-stimulated Caco-2 cells; assay type: cell-based, human; details: 5–80 μM, 6 h cytokine stimulation, maximum effect
Experimental: as §1, with “Primers of target genes were designed and blasted using the NCBI database, whose PCR product sizes were confirmed by 2% agarose gel electrophoresis. The list of primer sequences used in the study is presented in Supplemental Table S1. The calculation of target gene levels was based upon the Livak (2^−ΔΔCT) method with normalisation to the housekeeping gene, β-actin [31].” left out

iNOS = iNOS mRNA level (qPCR) in cytokine-stimulated Caco-2 cells; assay type: cell-based, human; details: 5–80 μM, 6 h cytokine stimulation, maximum effect
Experimental: as §1, with “Primers of target genes were designed and blasted using the NCBI database, whose PCR product sizes were confirmed by 2% agarose gel electrophoresis. The list of primer sequences used in the study is presented in Supplemental Table S1. The calculation of target gene levels was based upon the Livak (2^−ΔΔCT) method with normalisation to the housekeeping gene, β-actin [31].” left out

NOX-1 = NOX-1 mRNA level (qPCR) in cytokine-stimulated Caco-2 cells; assay type: cell-based, human; details: 5–80 μM, 6 h cytokine stimulation, maximum effect
Experimental: as §1, with “Primers of target genes were designed and blasted using the NCBI database, whose PCR product sizes were confirmed by 2% agarose gel electrophoresis. The list of primer sequences used in the study is presented in Supplemental Table S1. The calculation of target gene levels was based upon the Livak (2^−ΔΔCT) method with normalisation to the housekeeping gene, β-actin [31].” left out

NQO-1 [1] = assay: NQO-1 mRNA level (qPCR) in cytokine-stimulated Caco-2 cells; assay type: cell-based, human; details: 5–80 μM, 6 h cytokine stimulation, vs SC
Experimental: as §1, with “Primers of target genes were designed and blasted using the NCBI database, whose PCR product sizes were confirmed by 2% agarose gel electrophoresis. The list of primer sequences used in the study is presented in Supplemental Table S1. The calculation of target gene levels was based upon the Livak (2^−ΔΔCT) method with normalisation to the housekeeping gene, β-actin [31].” left out

HO-1 = HO-1 mRNA level (qPCR) in cytokine-stimulated Caco-2 cells; assay type: cell-based, human; details: 5–80 μM, 6 h cytokine stimulation, vs SC
Experimental: as §1, with “Primers of target genes were designed and blasted using the NCBI database, whose PCR product sizes were confirmed by 2% agarose gel electrophoresis. The list of primer sequences used in the study is presented in Supplemental Table S1. The calculation of target gene levels was based upon the Livak (2^−ΔΔCT) method with normalisation to the housekeeping gene, β-actin [31].” left out

GCLC = GCLC mRNA level (qPCR) in cytokine-stimulated Caco-2 cells; assay type: cell-based, human; details: 5–80 μM, 6 h cytokine stimulation, vs SC
Experimental: as §1, with “Primers of target genes were designed and blasted using the NCBI database, whose PCR product sizes were confirmed by 2% agarose gel electrophoresis. The list of primer sequences used in the study is presented in Supplemental Table S1. The calculation of target gene levels was based upon the Livak (2^−ΔΔCT) method with normalisation to the housekeeping gene, β-actin [31].” left out

GPX-1 = GPX-1 mRNA level (qPCR) in cytokine-stimulated Caco-2 cells; assay type: cell-based, human; details: 5–80 μM, 6 h cytokine stimulation, vs SC
Experimental: as §1, with “Primers of target genes were designed and blasted using the NCBI database, whose PCR product sizes were confirmed by 2% agarose gel electrophoresis. The list of primer sequences used in the study is presented in Supplemental Table S1. The calculation of target gene levels was based upon the Livak (2^−ΔΔCT) method with normalisation to the housekeeping gene, β-actin [31].” left out

GSTA-1 = GSTA-1 mRNA level (qPCR) in cytokine-stimulated Caco-2 cells; assay type: cell-based, human; details: 5–80 μM, 6 h cytokine stimulation, vs SC
Experimental: as §1, with “Primers of target genes were designed and blasted using the NCBI database, whose PCR product sizes were confirmed by 2% agarose gel electrophoresis. The list of primer sequences used in the study is presented in Supplemental Table S1. The calculation of target gene levels was based upon the Livak (2^−ΔΔCT) method with normalisation to the housekeeping gene, β-actin [31].” left out

GSTP-1 = GSTP-1 mRNA level (qPCR) in cytokine-stimulated Caco-2 cells; assay type: cell-based, human; details: 5–80 μM, 6 h cytokine stimulation, vs SC
Experimental: as §1, with “Primers of target genes were designed and blasted using the NCBI database, whose PCR product sizes were confirmed by 2% agarose gel electrophoresis. The list of primer sequences used in the study is presented in Supplemental Table S1. The calculation of target gene levels was based upon the Livak (2^−ΔΔCT) method with normalisation to the housekeeping gene, β-actin [31].” left out

Caco-2 cells = assay: Intracellular ROS formation (DCFH2-DA) in H2O2-stressed Caco-2 cells; assay type: cell-based, human; details: throughout concentration range 5–80 μM, 200 μM H2O2
Experimental: The generation of reactive oxygen species (ROS) within Caco-2 cells was determined in 96-well plates with the probe 2′,7′-dichlorodihydrofluorescein diacetate (DCFH2-DA), which is intracellularly deacetylated and oxidised to highly fluorescent 2′,7′-dichlorofluorescein (DCF). DCFH2-DA (30 µM) dissolved in PBS with 1% FBS (v/v) was applied to the confluent Caco-2 cells and incubated for 40 min at 37 °C. After washing, cells were treated with BET, VUL and IND (5–80 μM) for 1 h and subsequently stressed with H2O2 (200 μM) for a further 1 h. The plate was scanned using Tecan Spark 10M^TM with excitation λ of 485 nm and emission λ of 535 nm. Subsequently, the protein content of each well was determined by SRB assay. Briefly, the medium was removed and the cells were washed with PBS and submerged with 50 μL of 0.004% SRB solution (w/v) in 10% trichloroacetic acid (w/v). Cells were incubated at room temperature for 15 min and washed with 1% acetic acid (200 μL, v/v). After treating with Tris base (10 mM, 100 μL), cells were incubated for 5 min under shaking conditions. Finally, the plate was scanned using a Tecan plate reader with excitation λ of 540 nm and emission λ of 590 nm. Results of the ROS assay were normalised to the relative protein content for each well and expressed as the relative fluorescence intensity % (RFI) with respect to the value of positive control.

[2] = EPR spin-trapping superoxide radical scavenging assay; details: 20, 50 μM betalain
Experimental: (§2) Electron paramagnetic resonance (EPR) with spin trapping was used to determine superoxide and DPPH radical scavenging abilities of betalains reflected by the reduction of relative signal strength. EPR spectra were recorded 1 min after reagent mixing on a JEOL X320 spectrometer (X-band) in glass capillaries (0.8 mm ID). Superoxide assay was carried out by mixing the following solutions in 30% aqueous ethanol as solvent: hypoxanthine (1 mM, 55 μL), 5,5-dimethyl-1-pyrroline-N-oxide (DMPO) (1 M, 15 μL) and deferoxamine (10 mM, 10 μL). Individual betalains (200 and 500 μM) or solvent control were subsequently added in a volume of 10 μL. The reaction was initiated by the addition of 2 U mL^−1 xanthine oxidase (10 μL), achieving 20 and 50 μM as final concentrations of betalains in the mixture.
(§3) The 2,2-diphenyl-1-(2,4,6-trinitrophenyl)hydrazyl (DPPH) assay was conducted by mixing ethanol (40 μL) with 30% aqueous ethanol solutions of DPPH (100 μM, 50 μL) and purified betalains (200 μM, 10 μL), providing the working concentration of betalains as 20 μM. In both assays, acquisition of EPR spectra was started 1 min after reagent mixing. To improve the accuracy of measurements, the signal intensity for the superoxide assay was determined in triplicate by fitting the experimental spectra to the simulated superoxide-DMPO adduct spectra.

[3] = EPR DPPH radical scavenging assay; details: 20 μM betalain
Experimental: as §2, §3

[4] = Trans-epithelial transport (AP-to-BL) across differentiated Caco-2 monolayer; assay type: in vitro ADME, human; details: human, Caco-2, 1 mM in AP chamber, apical pH 6.5, basolateral pH 7.5, read-out: Papp (apparent permeability coefficient), absorptive direction AP-to-BL
Experimental: (§4) Trans-epithelial transport of purified betalains (AP-to-BL) was investigated in differentiated Caco-2 cells in 12-well plate transwell inserts (PET membrane, 0.4 μm pore size, Sarstedt) at an initial density of 1 × 10^5 cells cm^−2. Complete medium was added in both apical (AP) and basolateral (BL) chambers and was replaced every 2–3 days. Cell membrane integrity was monitored weekly through measurement of trans-epithelial electrical resistance (TEER) across the growth area until full differentiation of the cells after 21 days. During the experiment, Hanks’ balanced salt solution (HBSS) in the apical compartment was adjusted to pH 6.5 with MES (2 mM), while basolateral pH remained at 7.5 [25]. Purified BET, VUL and IND (420–1000 μM) were supplied to the apical side of the membrane and incubated at 37 °C for up to 2 h. As a marker compound of paracellular transport, phenolsulfonaphtalein (5 mM) was also applied to parallel cell membranes in the apical chamber. The study also evaluated the permeability of compounds through the Caco-2 membrane with a loosened tight junction in parallel wells which was achieved by 5-min incubation of differentiated membrane in trypsin EDTA (0.05%, v/v). The basolateral solution was collected and replaced every 30 min until 2 h, under initial rate conditions. The betalain-containing solutions were processed and submitted to LC-MS analysis, while phenolsulfonaphtalein was quantified spectrophotometrically at λ of 430 nm. TEER values were monitored at the beginning and the end of the experiment to check the impact of compounds on monolayer integrity. The apparent permeability coefficients (Papp) were calculated as per Equation (1), where V = volume of basolateral solution, A = cell growth area, C0 = initial concentration of apical betalain and dC/dt = steady-state flux across the monolayer. (1) Papp=1/C0×A·V×dC/dt
(§5) Betalain compounds from the cell culture samples were quantified and identified by an ultra-high-speed LC fitted with a UV-Vis detector (SPD-20A), followed by a single quadrupole MS with an electrospray ionisation source (ESI) (Shimazu, 2020). HPLC separation was performed by a reverse phase C18 column (100 mm × 2.1 mm I.D., 3.5 μm) at the temperature of 35 °C. […] Betacyanins and betaxanthins were detected at the wavelengths of 536 nm and 486 nm, respectively, and their molecular weights were monitored by ESI-MS with positive ion mode. Compounds were identified based on the m/z values and quantified using standard curves with purified betalains, as shown in Supplemental Figure S1.

[5] = tested on: differentiated Caco-2 cells; assay: as above; assay type: in vitro ADME, human; details: AP-to-BL
Experimental: as §4, §5

[6] = tested on: differentiated Caco-2 cells; assay: Intracellular accumulation in differentiated Caco-2 cells; assay type: in vitro ADME, human; details: 250 μM, 2 h incubation in HBSS
Experimental: For accumulation experiments, differentiated Caco-2 cells were incubated with purified BET, VUL and IND (250 μM) for 2 h in HBSS. The cell layer was washed twice with DPBS prior to being scraped into methanol, and pigments were subsequently extracted for LC-MS analysis. The total protein content of lysed cells was determined by bicinchoninic acid (BCA) assay (Pierce™ Thermo Scientific) in accordance with the manufacturer’s instructions.
as §5

NQO-1 [7] = tested on: NQO-1; design: method as in PMID 23769299; details: 20 μM, human hepatocytes; cited from earlier work
GSTM = tested on: GSTM; design: method as in PMID 23769299; details: 20 μM, human hepatocytes; cited from earlier work
[8] = design: method as in PMID 18959410; details: purified compound; cited from earlier work

O=C(O)C1=C/C(=C/C=[N+]2/c3cc(O)c(O[C@@H]4O[C@H](CO)[C@@H](O)[C@H](O)[C@H]4O)cc3C[C@H]2C(=O)[O-])C[C@@H](C(=O)O)N1 [BET, betanin]
Downregulation of IL-6 expression vs cytokine control (SC) (IL-6): up to 50% | Downregulation of IL-8 expression vs cytokine control (SC) (IL-8): ≤ 39% | Attenuation of COX-2 mRNA levels (COX-2): up to 34% | Reduction of iNOS mRNA levels (iNOS): < 42% | Attenuation of NOX-1 mRNA levels (NOX-1): up to 34% | Upregulation of NQO-1 expression (NQO-1 [1]): < 24% | Upregulation of HO-1 expression (HO-1): < 24% | Upregulation of GCLC expression (GCLC): < 33% | Upregulation of GPX-1 expression (GPX-1): < 23% | Induction of GSTA-1 expression (GSTA-1): < 51% | Upregulation of GSTP-1 expression (GSTP-1): < 24% | Suppression of H2O2-stimulated ROS (Caco-2 cells): < 64% | Decrease in EPR signal intensity, superoxide assay [2]: < 35% | Decrease in EPR signal intensity, DPPH assay [3]: < 71% | Papp A→B at 2 h, 1 mM [4]: 0.415 ×10⁻⁶ cm/s | Proportion transported within 2 h of total amount applied [5]: 1.0% | Intracellular accumulation [6]: 0.02 nmol per mg of protein | Increase of NQO-1 expression in the baseline (NQO-1 [7]): ca. 60% | Increase of GSTM expression in the baseline (GSTM): ~100% | Loss along the digestion [8]: up to 70%
